The text below walks through data of paper PMC6222544, “Fragment-Based Lead Generation of 5-Phenyl-1H-pyrazole-3-carboxamide Derivatives as Leads for Potent Factor Xia Inhibitors” (Molecules : A Journal of Synthetic Chemistry and Natural …, 2018).

The target in one data set is T1, human FXIa (Homo sapiens, UniProt P03951).
T1 construct: purchased Haematologic Technologies, Essex Junction, VT, USA
The data set can be described thus: Inhibition of FXIa in vitro (chromogenic substrate assay). In kind it is biochemical. The procedure: The negative controlwas composed of the same mixed solutions except replacing test compound with DMSO. […] The IC50 was calculated by IBM SPSS Statistics 22.0 (IBM Inc., North Castle, NY, USA) and the Probit function in it. IC50 values were converted to Ki values by the followingrelationship:Ki = IC50/(1 + [S]/Km)

Where [1] appears, read: human FXIa, chromogenic substrate BIOPHEN CS-21(66), 37 °C, pH 7.4, Ki = IC50/(1 + [S]/Km), read-out: Ki.
[2] abbreviates: Table 1 values, read-out: FXIa inhibitory potency (Ki).

Read-outs that look alike come from different tables or passages of the source. Bounds are passed on as bounds.

T1 sequence (P03951 388-625 limits assumed): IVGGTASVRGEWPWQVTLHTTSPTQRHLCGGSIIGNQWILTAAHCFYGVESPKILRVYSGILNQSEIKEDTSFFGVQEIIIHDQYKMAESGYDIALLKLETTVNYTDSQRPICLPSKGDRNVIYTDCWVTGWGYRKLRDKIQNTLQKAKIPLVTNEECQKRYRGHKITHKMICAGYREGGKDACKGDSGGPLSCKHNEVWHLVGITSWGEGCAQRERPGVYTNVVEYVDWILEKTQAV
T1 sequence (P03951 19-387 partner limits assumed): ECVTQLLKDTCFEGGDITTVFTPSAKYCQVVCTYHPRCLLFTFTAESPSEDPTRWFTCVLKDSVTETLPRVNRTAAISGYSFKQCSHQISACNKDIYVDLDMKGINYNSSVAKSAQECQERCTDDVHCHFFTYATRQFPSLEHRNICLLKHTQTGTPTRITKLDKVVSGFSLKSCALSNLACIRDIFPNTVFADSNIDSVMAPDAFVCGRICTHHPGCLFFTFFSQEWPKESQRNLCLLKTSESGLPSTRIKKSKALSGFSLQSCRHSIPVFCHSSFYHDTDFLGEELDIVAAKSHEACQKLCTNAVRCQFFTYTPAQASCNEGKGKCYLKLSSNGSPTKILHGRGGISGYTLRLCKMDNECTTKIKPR

As to `O=C(O)c1ccc(NC(=O)[C@H](Cc2ccccc2)NC(=O)c2cc(-c3cccc(Cl)c3)[nH]n2)cc1` [Compound 7a, (S)-4-(2-(5-(3-Chlorophenyl)-1H-pyrazole-3-carboxamido)-3-phenylpropanamido)benzoic acid], the melting point was 147 to 149 °C (dec.). For the same compound, at human FXIa (setting [1]), the Ki turned out to be 46.7 µM.
The matching figures for `O=C(O)c1ccc(NC(=O)[C@H](Cc2ccccc2)NC(=O)c2cc(-c3ccccc3)[nH]n2)cc1` [Compound 7b, (S)-4-(3-Phenyl-2-(5-phenyl-1H-pyrazole-3-carboxamido)propanamido)benzoic acid]: 137 to 139 °C (dec.) and more than 84.5 µM.
The matching figures for `O=C(O)c1ccc(NC(=O)[C@H](Cc2ccccc2)NC(=O)c2cc(-c3ccccc3F)[nH]n2)cc1` [Compound 7c, (S)-4-(2-(5-(2-Fluorophenyl)-1H-pyrazole-3-carboxamido)-3-phenylpropanamido)benzoic acid]: 86 to 88 °C (dec.) and more than 84.5 µM.
On to `O=C(O)c1ccc(NC(=O)[C@H](Cc2ccccc2)NC(=O)c2cc(-c3ccccc3Cl)[nH]n2)cc1` [Compound 7d, (S)-4-(2-(5-(2-Chlorophenyl)-1H-pyrazole-3-carboxamido)-3-phenylpropanamido)benzoic acid], for which the melting point is 92 to 94 °C (dec.). Besides, the Ki at human FXIa (setting [1]) is more than 84.5 µM.
For `O=C(O)c1ccc(NC(=O)[C@H](Cc2ccccc2)NC(=O)c2cc(-c3ccc(Cl)cc3)[nH]n2)cc1` [Compound 7e, (S)-4-(2-(5-(4-Chlorophenyl)-1H-pyrazole-3-carboxamido)-3-phenylpropanamido)benzoic acid], in that order: 174 to 176 °C (dec.) and more than 84.5 µM.
The matching figures for `O=C(O)c1ccc(NC(=O)[C@H](Cc2ccccc2)NC(=O)c2cc(-c3cccc(Cl)c3F)[nH]n2)cc1` [Compound 7f, (S)-4-(2-(5-(3-Chloro-2-fluorophenyl)-1H-pyrazole-3-carboxamido)-3-phenylpropanamido)benzoic acid]: 185 to 187 °C (dec.) and 29.3 µM.
For `O=C(O)c1ccc(NC(=O)[C@H](Cc2ccccc2)NC(=O)c2cc(-c3ccc(Cl)cc3F)[nH]n2)cc1` [Compound 7g, (S)-4-(2-(5-(4-Chloro-2-fluorophenyl)-1H-pyrazole-3-carboxamido)-3-phenylpropanamido)benzoic acid], the melting point was 143 to 145 °C (dec.). For the same compound, the Ki at human FXIa (setting [1]) is more than 84.5 µM.
For `O=C(O)c1ccc(NC(=O)[C@H](Cc2ccccc2)NC(=O)c2cc(-c3cc(Cl)ccc3F)[nH]n2)cc1` [Compound 7h, (S)-4-(2-(5-(5-Chloro-2-fluorophenyl)-1H-pyrazole-3-carboxamido)-3-phenylpropanamido)benzoic acid], in that order: 179 to 181 °C (dec.) and more than 84.5 µM.
For `O=C(O)c1ccc(NC(=O)[C@H](Cc2ccccc2)NC(=O)c2cc(-c3c(F)cccc3Cl)[nH]n2)cc1` [Compound 7i, (S)-4-(2-(5-(2-Chloro-6-fluorophenyl)-1H-pyrazole-3-carboxamido)-3-phenylpropanamido)benzoic acid], the melting point is 203 to 205 °C (dec.). Further, the inhibition constant (Ki) at human FXIa (setting [1]) is more than 84.5 µM.
The matching figures for `O=C(O)c1ccc(NC(=O)[C@H](Cc2ccccc2)NC(=O)c2cc(-c3c(F)cccc3F)[nH]n2)cc1` [Compound 7j, (S)-4-(2-(5-(2,6-Difluorophenyl)-1H-pyrazole-3-carboxamido)-3-phenylpropanamido)benzoic acid]: 205 to 207 °C (dec.) and more than 84.5 µM.
The matching figures for `O=C(O)c1ccc(NC(=O)[C@H](Cc2ccccc2)NC(=O)c2cc(-c3c(F)ccc(Cl)c3F)[nH]n2)cc1` [Compound 7k, (S)-4-(2-(5-(3-Chloro-2,6-difluorophenyl)-1H-pyrazole-3-carboxamido)-3-phenylpropanamido)benzoicacid]: 129 to 131 °C (dec.) and 28.9 µM.
For `O=C(O)c1ccc(NC(=O)[C@H](Cc2ccccc2)NC(=O)c2cc(-c3c(F)cc(Cl)cc3F)[nH]n2)cc1` [Compound 7l, (S)-4-(2-(5-(4-Chloro-2,6-difluorophenyl)-1H-pyrazole-3-carboxamido)-3-phenylpropanamido)benzoic acid], in that order: 123 to 125 °C (dec.) and more than 84.5 µM.
In the case of `Cc1c(C(=O)N[C@@H](Cc2ccccc2)C(=O)Nc2ccc(C(=O)O)cc2)n[nH]c1-c1cccc(Cl)c1` [Compound 7m, (S)-4-(2-(5-(3-Chlorophenyl)-4-methyl-1H-pyrazole-3-carboxamido)-3-phenylpropanamido)benzoic acid], the melting point was 164 to 166 °C (dec.). The Ki on human FXIa (setting [1]) turned out to be 37.1 µM.
For `CCc1c(C(=O)N[C@@H](Cc2ccccc2)C(=O)Nc2ccc(C(=O)O)cc2)n[nH]c1-c1cccc(Cl)c1` [Compound 7n, (S)-4-(2-(5-(3-Chlorophenyl)-4-ethyl-1H-pyrazole-3-carboxamido)-3-phenylpropanamido)benzoic acid], in that order: 126 to 128 °C (dec.) and more than 84.5 µM.
In the case of `O=C(O)c1cc2cc(NC(=O)[C@H](Cc3ccccc3)NC(=O)c3cc(-c4cccc(Cl)c4F)n[nH]3)ccc2[nH]1` [Compound 7o, (S)-5-(2-(3-(3-Chloro-2-fluorophenyl)-1H-pyrazole-5-carboxamido)-3-phenylpropanamido)-1H-indole-2-carboxylic acid], the melting point is 172 to 174 °C (dec.). Moreover, at human FXIa (setting [2]), the Ki stood at 1.97 µM.
Consider `O=C(O)c1cc2cc(NC(=O)[C@H](Cc3ccccc3)NC(=O)c3cc(-c4c(F)ccc(Cl)c4F)n[nH]3)ccc2[nH]1` [Compound 7p, (S)-5-(2-(3-(3-Chloro-2,6-difluorophenyl)-1H-pyrazole-5-carboxamido)-3-phenylpropanamido)-1H-indole-2-carboxylic acid], for which the melting point is 164 to 166 °C (dec.). The Ki on human FXIa (setting [1]) was found to be 8.4 µM.
Consider `Cc1c(C(=O)N[C@@H](Cc2ccccc2)C(=O)Nc2ccc3[nH]c(C(=O)O)cc3c2)n[nH]c1-c1cccc(Cl)c1` [Compound 7q, (S)-5-(2-(3-(3-Cchlorophenyl)-4-methyl-1H-pyrazole-5-carboxamido)-3-phenylpropanamido)-1H-indole-2-carboxylic acid], for which the melting point was 154 to 156 °C (dec.). Further, on human FXIa (setting [1]), the inhibition constant (Ki) is 8.94 µM.
Take `O=C(O)c1cc2cc(NC(=O)[C@H](Cc3ccc(F)cc3)NC(=O)c3cc(-c4cccc(Cl)c4F)n[nH]3)ccc2[nH]1` [Compound 7s, (S)-5-(2-(3-(3-Chloro-2-fluorophenyl)-1H-pyrazole-5-carboxamido)-3-(4-fluorophenyl)propanamido)-1H-indole-2-carboxylic acid]: the melting point was 186 to 188 °C (dec.). In addition, the Ki at human FXIa (setting [2]) is 0.93 µM.
Consider `O=C(O)c1cc2cc(NC(=O)[C@H](Cc3cccc(F)c3)NC(=O)c3cc(-c4cccc(Cl)c4F)n[nH]3)ccc2[nH]1` [Compound 7t, (S)-5-(2-(3-(3-Chloro-2-fluorophenyl)-1H-pyrazole-5-carboxamido)-3-(3-fluorophenyl)propanamido)-1H-indole-2-carboxylic acid], for which the melting point was 174 to 176 °C (dec.). In addition, the inhibitory constant (Ki) at human FXIa (setting [2]) came out at 1.66 µM.
For the compound `O=C(O)c1cc2cc(NC(=O)[C@H](Cc3ccncc3)NC(=O)c3cc(-c4cccc(Cl)c4F)n[nH]3)ccc2[nH]1` [Compound 7u, (S)-5-(2-(3-(3-Chloro-2-fluorophenyl)-1H-pyrazole-5-carboxamido)-3-(pyridin-4-yl)propanamido)-1H-indole-2-carboxylic acid], the melting point was 199 to 201 °C (dec.). Further, at human FXIa (setting [2]), the Ki came to 13.3 µM.
For `O=C(O)c1cc2cc(NC(=O)[C@H](Cc3cccnc3)NC(=O)c3cc(-c4cccc(Cl)c4F)n[nH]3)ccc2[nH]1` [Compound 7v, (S)-5-(2-(3-(3-Chloro-2-fluorophenyl)-1H-pyrazole-5-carboxamido)-3-(pyridin-3-yl)propanamido)-1H-indole-2-carboxylic acid], the melting point is 175 to 177 °C (dec.). Besides, the inhibition constant Ki at human FXIa (setting [2]) came to 3.52 µM.
The matching figures for `O=C(O)c1cc2cc(NC(=O)[C@H](Cc3ccccn3)NC(=O)c3cc(-c4cccc(Cl)c4F)n[nH]3)ccc2[nH]1` [Compound 7w, (S)-5-(2-(3-(3-Chloro-2-fluorophenyl)-1H-pyrazole-5-carboxamido)-3-(pyridin-2-yl)propanamido)-1H-indole-2-carboxylic acid]: 192 to 194 °C (dec.) and 8.99 µM.
As to `CC(=O)N1CCN(C(=O)C[C@H](NC(=O)c2cc(-c3cccc(Cl)c3F)[nH]n2)C(=O)Nc2ccc3[nH]c(C(=O)O)cc3c2)CC1` [Compound 7x, (S)-5-(4-(4-Acetylpiperazin-1-yl)-2-(5-(3-chloro-2-fluorophenyl)-1H-pyrazole-3-carboxamido)-4-oxobutanamido)-1H-indole-2-carboxylic acid], the Ki on human FXIa (setting [2]) worked out at 81.2 µM.
As for `O=C(O)c1cc2cc(NC(=O)[C@H](CC(=O)N3CCOCC3)NC(=O)c3cc(-c4cccc(Cl)c4F)n[nH]3)ccc2[nH]1` [Compound 7y, (S)-5-(2-(3-(3-Chloro-2-fluorophenyl)-1H-pyrazole-5-carboxamido)-4-morpholino-4-oxobutanamido)-1H-indole-2-carboxylic acid], the melting point was 175 to 177 °C (dec.). Also, at human FXIa (setting [2]), the inhibitory constant (Ki) is 64 µM.
Take `Nc1ccc(C[C@H](NC(=O)c2cc(-c3cccc(Cl)c3F)[nH]n2)C(=O)Nc2ccc3[nH]c(C(=O)O)cc3c2)cc1` [Compound 7z, (S)-5-(3-(4-Aminophenyl)-2-(5-(3-chloro-2-fluorophenyl)-1H-pyrazole-3-carboxamido)propanamido)-1H-indole-2-carboxylic acid]: the melting point was 209 to 211 °C (dec.). Besides, the Ki at human FXIa (setting [1]) came out at 4.1 µM.

As a reminder, the melting point is the temperature of the solid-liquid transition. What is called Ki is a measure of affinity in units of concentration, obtained from inhibition or displacement.
